In PubChem BioAssay AID2060499 (Molecular Pharmacology Branch, DTP, NCI, 2025):

Tested on: 777334-354-R2-J4-PDC tumor spheroids with HUVEC/MSC, viability
Assay: Anticancer human tumor 777334-354-R2-J4-PDC patient-derived pancreatic adenocarcinoma cell line growth inhibition [GQUAD]
Details: for IC50: curve of first compound; for viability, T/C: stronger effect = lower value
Summary of the method: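 Tumor cells were grown as complex spheroids with HUVEC endothelial cells and mesenchymal stem cells as stroma. G-quadruplex stabilizers were combined with targeted agents over half-log dilutions from near the clinical Cmax, or from 10 microM.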

[1] = second compound 0.0316 µM, first compound 0.0316 µM
[2] = second compound 0.0316 µM, first compound 0.1 µM
[3] = second compound 0.0316 µM, first compound 0.316 µM
[4] = second compound 0.0316 µM, first compound 1 µM
[5] = second compound 0.0316 µM, first compound 3.16 µM
[6] = second compound 0.0316 µM, first compound 10 µM
[7] = second compound 0.1 µM, first compound 0.0316 µM
[8] = second compound 0.1 µM, first compound 0.1 µM
[9] = second compound 0.1 µM, first compound 0.316 µM
[10] = second compound 0.1 µM, first compound 1 µM
[11] = second compound 0.1 µM, first compound 3.16 µM
[12] = second compound 0.1 µM, first compound 10 µM
[13] = second compound 0.316 µM, first compound 0.0316 µM
[14] = second compound 0.316 µM, first compound 0.1 µM
[15] = second compound 0.316 µM, first compound 0.316 µM
[16] = second compound 0.316 µM, first compound 1 µM
[17] = second compound 0.316 µM, first compound 3.16 µM
[18] = second compound 0.316 µM, first compound 10 µM
[19] = second compound 1 µM, first compound 0.0316 µM
[20] = second compound 1 µM, first compound 0.1 µM
[21] = second compound 1 µM, first compound 0.316 µM
[22] = second compound 1 µM, first compound 1 µM
[23] = second compound 1 µM, first compound 3.16 µM
[24] = second compound 1 µM, first compound 10 µM
[25] = second compound 3.16 µM, first compound 0.0316 µM
[26] = second compound 3.16 µM, first compound 0.1 µM
[27] = second compound 3.16 µM, first compound 0.316 µM
[28] = second compound 3.16 µM, first compound 1 µM
[29] = second compound 3.16 µM, first compound 3.16 µM
[30] = second compound 3.16 µM, first compound 10 µM
[31] = second compound 10 µM, first compound 0.0316 µM
[32] = second compound 10 µM, first compound 0.1 µM
[33] = second compound 10 µM, first compound 0.316 µM
[34] = second compound 10 µM, first compound 1 µM
[35] = second compound 10 µM, first compound 3.16 µM
[36] = second compound 10 µM, first compound 10 µM
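Further: spheroids exposed to compounds for 7 days before readout.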

COc1cccc2c1C(=O)c1c(O)c3c(c(O)c1C2=O)CC(O)(C(=O)CO)CC3OC1CC(N)C(O)C(C)O1 (stereo unspecified) + Cc1cnc(CNC(=O)c2c(=O)c3ccc(N4CCCN(C)CC4)nc3n3c2sc2ccccc23)cn1
IC50 (second compound 0.0316 µM): 0.878 µM | IC50 (second compound 0.1 µM): 0.769 µM | IC50 (second compound 0.316 µM): 1.04 µM | IC50 (second compound 1 µM): 0.869 µM | IC50 (second compound 3.16 µM): 0.684 µM | IC50 (second compound 10 µM): 0.399 µM | viability, T/C [1]: 88.3% | viability, T/C [2]: 87.2% | viability, T/C [3]: 81.8% | viability, T/C [4]: 44.3% | viability, T/C [5]: 23.4% | viability, T/C [6]: 11.9% | viability, T/C [7]: 83.8% | viability, T/C [8]: 77.2% | viability, T/C [9]: 76.8% | viability, T/C [10]: 40.7% | viability, T/C [11]: 22.5% | viability, T/C [12]: 10.7% | viability, T/C [13]: 73.5% | viability, T/C [14]: 80.8% | viability, T/C [15]: 63.3% | viability, T/C [16]: 52.1% | viability, T/C [17]: 26.3% | viability, T/C [18]: 6.61% | viability, T/C [19]: 63% | viability, T/C [20]: 70.4% | viability, T/C [21]: 67.3% | viability, T/C [22]: 45.4% | viability, T/C [23]: 21.8% | viability, T/C [24]: 4.42% | viability, T/C [25]: 64.2% | viability, T/C [26]: 64.1% | viability, T/C [27]: 68% | viability, T/C [28]: 40.9% | viability, T/C [29]: 16% | viability, T/C [30]: 0.58% | viability, T/C [31]: 57.3% | viability, T/C [32]: 55.8% | viability, T/C [33]: 55.8% | viability, T/C [34]: 35.3% | viability, T/C [35]: 11.9% | viability, T/C [36]: 0.28%

Nc1ccn(C2OC(CO)C(O)C2(F)F)c(=O)n1 (stereo unspecified) + Cc1cnc(CNC(=O)c2c(=O)c3ccc(N4CCCN(C)CC4)nc3n3c2sc2ccccc23)cn1
IC50 (second compound 0.0316 µM): 0.975 µM | IC50 (second compound 0.1 µM): 0.679 µM | IC50 (second compound 0.316 µM): 1.2 µM | IC50 (second compound 1 µM): 0.334 µM | IC50 (second compound 3.16 µM): 0.503 µM | IC50 (second compound 10 µM): 0.18 µM | viability, T/C [1]: 81.2% | viability, T/C [2]: 61.2% | viability, T/C [3]: 69.1% | viability, T/C [4]: 46.3% | viability, T/C [5]: 39.1% | viability, T/C [6]: 31.6% | viability, T/C [7]: 85.4% | viability, T/C [8]: 64.5% | viability, T/C [9]: 60.8% | viability, T/C [10]: 45.7% | viability, T/C [11]: 37.5% | viability, T/C [12]: 32.7% | viability, T/C [13]: 81.5% | viability, T/C [14]: 72.5% | viability, T/C [15]: 55.5% | viability, T/C [16]: 51.7% | viability, T/C [17]: 47.8% | viability, T/C [18]: 31.6% | viability, T/C [19]: 67.9% | viability, T/C [20]: 58.2% | viability, T/C [21]: 46.4% | viability, T/C [22]: 45.2% | viability, T/C [23]: 41.1% | viability, T/C [24]: 30.2% | viability, T/C [25]: 61.1% | viability, T/C [26]: 64% | viability, T/C [27]: 48.4% | viability, T/C [28]: 43.9% | viability, T/C [29]: 43.6% | viability, T/C [30]: 30.5% | viability, T/C [31]: 57.3% | viability, T/C [32]: 48.3% | viability, T/C [33]: 48.7% | viability, T/C [34]: 40.4% | viability, T/C [35]: 41.6% | viability, T/C [36]: 27%

O=c1[nH]cc(F)c(=O)[nH]1 + Cc1cnc(CNC(=O)c2c(=O)c3ccc(N4CCCN(C)CC4)nc3n3c2sc2ccccc23)cn1
IC50 (second compound 0.0316 µM): > 10 µM | IC50 (second compound 0.1 µM): > 10 µM | IC50 (second compound 0.316 µM): > 10 µM | IC50 (second compound 1 µM): > 10 µM | IC50 (second compound 3.16 µM): > 10 µM | IC50 (second compound 10 µM): > 10 µM | viability, T/C [1]: 97.7% | viability, T/C [2]: 94.8% | viability, T/C [3]: 91.9% | viability, T/C [4]: 87.9% | viability, T/C [5]: 69.5% | viability, T/C [6]: 64.5% | viability, T/C [7]: 82.4% | viability, T/C [8]: 84.8% | viability, T/C [9]: 89% | viability, T/C [10]: 80.1% | viability, T/C [11]: 82% | viability, T/C [12]: 68.3% | viability, T/C [13]: 85.3% | viability, T/C [14]: 82.8% | viability, T/C [15]: 73.8% | viability, T/C [16]: 75.8% | viability, T/C [17]: 74.7% | viability, T/C [18]: 66.5% | viability, T/C [19]: 71.3% | viability, T/C [20]: 66.8% | viability, T/C [21]: 68% | viability, T/C [22]: 67.7% | viability, T/C [23]: 73.2% | viability, T/C [24]: 65.7% | viability, T/C [25]: 59.4% | viability, T/C [26]: 73.2% | viability, T/C [27]: 67.3% | viability, T/C [28]: 61.6% | viability, T/C [29]: 68.8% | viability, T/C [30]: 56% | viability, T/C [31]: 57.7% | viability, T/C [32]: 61.9% | viability, T/C [33]: 59% | viability, T/C [34]: 59.7% | viability, T/C [35]: 50.8% | viability, T/C [36]: 51.8%
